Laboratory results from the supplement of paper PMC10627819.

Assays:
S. pneumoniae D39V [1] = assay: fitness (endpoint OD595 vs no drug) (fraction); higher = more growth
In short: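 In 384-well plates at 37 °C, cultures began at OD595 0.01 in 30 µl, with 55 µl used for S. pneumoniae. OD595 readings every 30 min for 14 h were corrected by the first reading. Fitness divides the stationary-phase transition optical density by the robust mean of no-drug control wells. The result is capped at 1.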

B. subtilis 168 = assay: Bliss interaction score (quartile over a dose matrix) (fitness difference); higher = more antagonism (negative = synergy)
In short: (§1)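 The Bliss score is observed fitness minus expected fitness, where the expected value is the product of single-drug fitness values inferred from combination data. Fitness is OD595 at entry into stationary phase normalised to the plate's robust no-drug mean and capped at 1. Scores are reported as quartiles spanning technical, biological and donor/recipient replicates.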

S. aureus DSM 20231 = assay: as above
In short: as §1

S. aureus Newman = assay: as above
In short: as §1

S. pneumoniae D39V [2] = assay: as above
In short: as §1
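Wherever Bliss interaction score (quartile over a dose matrix) is given: first quartile when negative (synergy) and third quartile when positive (antagonism).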
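Wherever fitness (endpoint OD595 vs no drug) is given: OD595 on entry to stationary phase over no-drug wells; at most 1.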

C[C@H]1COc2c(N3CCN(C)CC3)c(F)cc3c(=O)c(C(=O)O)cn1c23 [Levofloxacin] + Cn1nnc(-c2ccc(-c3ccc(N4C[C@H](CO)OC4=O)cc3F)cn2)n1 [Tedizolid]
fitness, S. pneumoniae D39V [1]
Details | first compound 0.1725 µg/mL | first compound 0.2 µg/mL | first compound 0.345 µg/mL | first compound 0.4 µg/mL | first compound 0.69 µg/mL | first compound 0.8 µg/mL
partner 0.03125 µg/mL | – | 0.921 | – | 0.855 | – | 0.629
partner 0.0625 µg/mL | – | 0.94 | – | 0.878 | – | 0.731
partner 0.125 µg/mL | 0.758 | 0.768 | 0.703 | 0.731 | 0.433 | 0.608
partner 0.25 µg/mL | 0.826 | – | 0.757 | – | 0.401 | –
partner 0.5 µg/mL | 0.243 | – | 0.203 | – | 0.189 | –

Details | Bliss interaction score
B. subtilis 168 | 0.0224
S. aureus DSM 20231 | 0.0821
S. aureus Newman | 0.057
S. pneumoniae D39V [2] | -0.126

C[C@H]1COc2c(N3CCN(C)CC3)c(F)cc3c(=O)c(C(=O)O)cn1c23 [Levofloxacin] + O=C1CN(/N=C/c2ccc([N+](=O)[O-])o2)C(=O)N1 [Nitrofurantoin]
fitness, S. pneumoniae D39V [1]
Details | first compound 0.1725 µg/mL | first compound 0.2 µg/mL | first compound 0.345 µg/mL | first compound 0.4 µg/mL | first compound 0.69 µg/mL | first compound 0.8 µg/mL
partner 1.285 µg/mL | – | 0.894 | – | 0.842 | – | 0.558
partner 2 µg/mL | 0.921 | – | 0.852 | – | 0.568 | –
partner 2.57 µg/mL | – | 0.909 | – | 0.865 | – | 0.524
partner 4 µg/mL | 0.92 | – | 0.797 | – | 0.535 | –
partner 8 µg/mL | 0.799 | – | 0.688 | – | 0.38 | –

S. pneumoniae D39V [1], partner 5.14 µg/mL, one replicate
Details | fitness
first compound 0.2 µg/mL | 0.86
first compound 0.4 µg/mL | 0.75
first compound 0.8 µg/mL | 0.317

Details | Bliss interaction score
B. subtilis 168 | 0.0577
S. aureus DSM 20231 | 0.027
S. aureus Newman | -0.0599
S. pneumoniae D39V [2] | -0.0691

CN(C)C(=O)C(CCN1CCC(O)(c2ccc(Cl)cc2)CC1)(c1ccccc1)c1ccccc1 [Loperamide] + C/C(=C\C(=O)OCCCCCCCCC(=O)O)C[C@@H]1OC[C@H](C[C@@H]2O[C@H]2[C@@H](C)[C@H](C)O)[C@@H](O)[C@H]1O [Pseudomonic acid]
fitness, S. pneumoniae D39V [1]
Details | first compound 17.14 µg/mL | first compound 20 µg/mL | first compound 34.28 µg/mL | first compound 40 µg/mL | first compound 80 µg/mL
partner 0.03 µg/mL | ≥ 1 | 0.9 | 0.99 | 0.961 | 0.845
partner 0.06 µg/mL | 0.859 | 0.726 | 0.808 | 0.766 | 0.747
partner 0.12 µg/mL | 0.686 | 0.544 | 0.632 | 0.569 | 0.509

S. pneumoniae D39V [1], first compound 68.57 µg/mL, one replicate
Details | fitness
partner 0.03 µg/mL | ≥ 1
partner 0.06 µg/mL | 0.996
partner 0.12 µg/mL | 0.663

Details | Bliss interaction score
B. subtilis 168 | -0.0528
S. aureus DSM 20231 | 0.0202
S. aureus Newman | 0.0342
S. pneumoniae D39V [2] | 0.121

CN(C)C(=O)C(CCN1CCC(O)(c2ccc(Cl)cc2)CC1)(c1ccccc1)c1ccccc1 [Loperamide] + CN[C@H](CC(C)C)C(=O)N[C@H]1C(=O)N[C@@H](CC(N)=O)C(=O)N[C@H]2C(=O)N[C@H]3C(=O)N[C@H](C(=O)N[C@H](C(=O)O)c4cc(O)cc(O)c4-c4cc3ccc4O)[C@H](O)c3ccc(c(Cl)c3)Oc3cc2cc(c3O[C@@H]2O[C@H](CO)[C@@H](O)[C@H](O)[C@H]2O[C@H]2C[C@](C)(N)[C@H](O)[C@H](C)O2)Oc2ccc(cc2Cl)[C@H]1O [Vancomycin]
S. pneumoniae D39V [1]
Details | fitness
first compound 17.14 µg/mL, partner 0.5 µg/mL | 0.0584
first compound 20 µg/mL, partner 0.03125 µg/mL | ≥ 1
first compound 20 µg/mL, partner 0.0625 µg/mL | 0.937
first compound 34.28 µg/mL, partner 0.25 µg/mL | 0.77
first compound 34.28 µg/mL, partner 0.5 µg/mL | 0.0876
first compound 40 µg/mL, partner 0.03125 µg/mL | 0.959
first compound 40 µg/mL, partner 0.0625 µg/mL | 0.866
first compound 80 µg/mL, partner 0.125 µg/mL | 0.28

S. pneumoniae D39V [1], first compound 68.57 µg/mL, one replicate
Details | fitness
partner 0.125 µg/mL | 0.942
partner 0.25 µg/mL | 0.853
partner 0.5 µg/mL | 0.0639

Details | Bliss interaction score
B. subtilis 168 | -0.0281
S. aureus DSM 20231 | -0.0861
S. aureus Newman | 0.0922
S. pneumoniae D39V [2] | -0.184

CN(C)C(=O)C(CCN1CCC(O)(c2ccc(Cl)cc2)CC1)(c1ccccc1)c1ccccc1 [Loperamide] + CO[C@H]1/C=C/O[C@@]2(C)Oc3c(C)c(O)c4c(O)c(c(/C=N/N5CCN(C)CC5)c(O)c4c3C2=O)NC(=O)/C(C)=C\C=C\[C@H](C)[C@H](O)[C@@H](C)[C@@H](O)[C@@H](C)[C@H](OC(C)=O)[C@@H]1C [Rifampicin]
fitness, S. pneumoniae D39V [1]
Details | first compound 17.14 µg/mL | first compound 34.28 µg/mL
partner 0.05 µg/mL | 0.875 | –
partner 0.2 µg/mL | 0.145 | 0.136

fitness, S. pneumoniae D39V [1], one replicate
Details | first compound 20 µg/mL | first compound 40 µg/mL | first compound 68.57 µg/mL | first compound 80 µg/mL
partner 0.025 µg/mL | 0.92 | 0.921 | – | 0.701
partner 0.05 µg/mL | – | – | 0.833 | –
partner 0.1 µg/mL | – | – | 0.544 | –
partner 0.2 µg/mL | 0 | 0 | 0.14 | 0

Details | Bliss interaction score
B. subtilis 168 | 0.161
S. aureus DSM 20231 | -0.0475
S. aureus Newman | 0.012
S. pneumoniae D39V [2] | -0.0733

CN(C)C(=O)C(CCN1CCC(O)(c2ccc(Cl)cc2)CC1)(c1ccccc1)c1ccccc1 [Loperamide] + Clc1ccc(COC(Cn2ccnc2)c2ccc(Cl)cc2Cl)c(Cl)c1 [Miconazole]
fitness, S. pneumoniae D39V [1]
Details | partner 1.073 µg/mL | partner 1.25 µg/mL | partner 2.145 µg/mL | partner 2.5 µg/mL | partner 4.29 µg/mL | partner 5 µg/mL
first compound 17.14 µg/mL | – | 0.963 | – | 0.954 | – | 0.933
first compound 20 µg/mL | ≥ 1 | – | ≥ 1 | – | 0.926 | –
first compound 34.28 µg/mL | – | 0.884 | – | 0.907 | – | 0.925
first compound 40 µg/mL | ≥ 1 | – | 0.955 | – | 0.731 | –

S. pneumoniae D39V [1], first compound 68.57 µg/mL, one replicate
Details | fitness
partner 1.25 µg/mL | 0.857
partner 2.5 µg/mL | 0.85
partner 5 µg/mL | 0.923

Details | Bliss interaction score
B. subtilis 168 | -0.136
S. aureus DSM 20231 | 0.0862
S. aureus Newman | -0.158
S. pneumoniae D39V [2] | -0.0772

CN(C)C(=O)C(CCN1CCC(O)(c2ccc(Cl)cc2)CC1)(c1ccccc1)c1ccccc1 [Loperamide] + Cn1nnc(-c2ccc(-c3ccc(N4C[C@H](CO)OC4=O)cc3F)cn2)n1 [Tedizolid]
fitness, S. pneumoniae D39V [1]
Details | first compound 17.14 µg/mL | first compound 20 µg/mL | first compound 34.28 µg/mL | first compound 40 µg/mL | first compound 80 µg/mL
partner 0.03125 µg/mL | – | 0.997 | – | ≥ 1 | ≥ 1
partner 0.0625 µg/mL | – | ≥ 1 | – | ≥ 1 | ≥ 1
partner 0.125 µg/mL | 0.933 | 0.908 | 0.961 | 0.94 | 0.976
partner 0.5 µg/mL | 0.532 | – | 0.529 | – | –

S. pneumoniae D39V [1], first compound 68.57 µg/mL, one replicate
Details | fitness
partner 0.125 µg/mL | 0.979
partner 0.25 µg/mL | 0.963
partner 0.5 µg/mL | 0.468

Details | Bliss interaction score
B. subtilis 168 | 0.06
S. aureus DSM 20231 | 0.198
S. aureus Newman | 0.102
S. pneumoniae D39V [2] | 0.243

CN(C)C(=O)C(CCN1CCC(O)(c2ccc(Cl)cc2)CC1)(c1ccccc1)c1ccccc1 [Loperamide] + O=C1CN(/N=C/c2ccc([N+](=O)[O-])o2)C(=O)N1 [Nitrofurantoin]
S. pneumoniae D39V [1]
Details | fitness
first compound 17.14 µg/mL, partner 2 µg/mL | 0.906
first compound 17.14 µg/mL, partner 4 µg/mL | 0.924
first compound 17.14 µg/mL, partner 8 µg/mL | 0.856
first compound 20 µg/mL, partner 1.285 µg/mL | ≥ 1
first compound 20 µg/mL, partner 2.57 µg/mL | 0.98
first compound 34.28 µg/mL, partner 2 µg/mL | 0.904
first compound 34.28 µg/mL, partner 4 µg/mL | 0.941
first compound 34.28 µg/mL, partner 8 µg/mL | 0.883
first compound 40 µg/mL, partner 1.285 µg/mL | ≥ 1
first compound 40 µg/mL, partner 2.57 µg/mL | 0.981
first compound 80 µg/mL, partner 1.285 µg/mL | 0.805
first compound 80 µg/mL, partner 2.57 µg/mL | 0.821

S. pneumoniae D39V [1], one replicate
Details | fitness
first compound 20 µg/mL, partner 5.14 µg/mL | ≥ 1
first compound 40 µg/mL, partner 5.14 µg/mL | ≥ 1
first compound 68.57 µg/mL, partner 2 µg/mL | 0.901
first compound 68.57 µg/mL, partner 4 µg/mL | 0.914
first compound 68.57 µg/mL, partner 8 µg/mL | 0.851
first compound 80 µg/mL, partner 5.14 µg/mL | 0.806

Details | Bliss interaction score
B. subtilis 168 | 0.0384
S. aureus DSM 20231 | 0.0206
S. aureus Newman | 0.045
S. pneumoniae D39V [2] | 0.106

CCN(CC)CCOC(=O)c1ccc(N)cc1 [Procaine] + CO[C@H]1/C=C/O[C@@]2(C)Oc3c(C)c(O)c4c(O)c(c(/C=N/N5CCN(C)CC5)c(O)c4c3C2=O)NC(=O)/C(C)=C\C=C\[C@H](C)[C@H](O)[C@@H](C)[C@@H](O)[C@@H](C)[C@H](OC(C)=O)[C@@H]1C [Rifampicin]
S. pneumoniae D39V [1], partner 0.025 µg/mL, one replicate
Details | fitness
first compound 85.5 µg/mL | 0.903
first compound 171 µg/mL | 0.875
first compound 342 µg/mL | 0.919

fitness, S. pneumoniae D39V [1]
Details | first compound 85.5 µg/mL | first compound 171 µg/mL | first compound 342 µg/mL
partner 0.05 µg/mL | 0.927 | 0.909 | 0.984
partner 0.2 µg/mL | 0.102 | 0.0616 | 0.132

Details | Bliss interaction score
B. subtilis 168 | -0.0578
S. aureus DSM 20231 | -0.054
S. aureus Newman | -0.0206
S. pneumoniae D39V [2] | 0.0704
